Test results: US20250281460A1, “PEGYLATED BILIRUBIN FOR THE TREATMENT OF […], OBESITY, FATTY LIVER DISEASE, CARDIOVASCULAR DISEASES AND TYPE II DIABETES” (The University of Toledo, priority 2019, published 2025)
“Also recorded” adds a separate entry of the source.

Experiments:
[1] = system: 3T3-PPARα cells; assay: SeaHorse mitochondrial respiration in 3T3-PPARα cells; format: cell-based, mouse; details: 3T3-L1 cells overexpressing PPARα
Text: (§1) To investigate the specific role of bilirubin on PPARα or PPARγ as well as mitochondrial function and gene regulation, 3T3-LI cells that overexpressed each receptor (3T3-PPARα or 3T3-PPARγ2) were generated via lentivirus (FIGS. 2A-2B). […] The 3T3-Vector cells had no responses to biliverdin in FIGS. 2A-2B.
(§2) Cellular respiration was quantified using the Seahorse Extracellular Flux Analyzer XF-96 (Agilent Technologies, Cedar Creek, TX). The Seahorse XF Cell Mito Stress Test Kit (Agilent Technologies, Cat #103015-100) was used for analysis of cellular respiration. BAT or 3T3-L1 cells were seeded on a XF96 cell culture microplate (Agilent 101085-004) at 20,000 cells per well. Cells were then differentiated as previously described for 9 days. […] The oxygen consumption rate (OCR) and extracellular acidification rate (ECAR) were used to quantify the cellular energy phenotype of the cells. After treatment, cells were washed twice with Seahorse Bioscience Assay Media (XF Base media with 25 mM Glucose, 2 mM […], and 1 mM Sodium Pyruvate) then incubated with the buffer for 1 hour in a non-CO2 incubator. The Seahorse Cartridge ports were loaded with […] of assay media with […] FCCP, 10 μM Oligomycin, 5 μM Rotenone/Antimycin A in different ports an hour before assay. […] The raw data and graphs were supplied as an Excel File or Graphpad Prizm file.

[2] = system: 3T3-L1 cells; assay: Adipogenesis assay, lipid accumulation (Nile Red) in 3T3-L1 cells; format: cell-based, mouse; details: over 9-day adipocytic differentiation
Experimental: (§3) Whether bilirubin decreases adiposity by enhancing mitochondrial function was evaluated. It was previously shown that bilirubin reduces lipid accumulation in adipocytes. However, it remained to be determined if this occurs by activation of PPARα to reduce adiposity, selective actions on PPARγ, or is a dual PPAR agonist, which together may mediate its glucose- and lipid-lowering effects. First, to determine if bilirubin enhances genes for mitochondrial function, 3T3-L1 cells, a WAT-type murine pre-adipocyte cell line that differentiates to full adipocytes, were treated with increasing concentrations of biliverdin, which is more soluble and is rapidly produced to bilirubin, over the 9-day adipocytic differentiation protocol.

[3] = system: BAT cells; assay: SeaHorse analysis in murine BAT cell line (wild-type); format: cell-based
[4] = system: BAT cells; assay: Lipid accumulation over differentiation of BAT cells; details: increasing doses over the differentiation of the BAT cells
Text: Upon differentiation, cells were stained with Nile Red to visualize lipid content, and densitometry was used as a direct measure as previously described.

[5] = system: 3T3-L1-WAT adipocytes; assay: SeaHorse oxygen consumption rate in fully differentiated 3T3-L1-WAT adipocytes; format: cell-based, mouse; details: 50 μM biliverdin, 50 μM WY 14,463, 10 μM rosiglitazone
Experimental: To compare the effects of bilirubin on the activation of PPARα or PPARγ on mitochondrial function, a SeaHorse XFe96 Analyzer was used to measure oxygen consumption rate (OCR) in fully differentiated 3T3-L1-WAT adipocytes treated with 50 μM biliverdin, 50 μM WY 14,463 (PPARα agonist), or 10 μM rosiglitazone (PPARγ-agonist). […]. Rosiglitazone, but not biliverdin or WY 14,643, enhanced the coupling efficiency. None of the ligands affected non-mitochondrial respiration, basal respiration, or proton leak.
as §2

[6] = system: 3T3-L1 cells; assay: Real-time PCR of mitochondrial and lipid burning genes in 3T3-L1 cells; format: cell-based, mouse
Experimental: as §3
Total RNA was extracted from mouse tissues using the miRNeasy Mini Kit (Qiagen). Total RNA was read on a NanoDrop 2000 spectrophotometer (Thermo Fisher Scientific, Wilmington, DE) and cDNA was synthesized using High Capacity cDNA Reverse Transcription Kit (Applied Biosystems). PCR amplification of the cDNA was performed by quantitative real-time PCR using TrueAmp SYBR Green qPCR SuperMix (Advance Bioscience). The thermocycling protocol consisted of 3 min at 95° C., 48 cycles of 15 sec at 95° C., 30 sec at 60° C., and based on primer size 0 to 30 sec at 72° C. and finished with a melting curve ranging from 60-95° C. to allow distinction of specific products. Normalization was performed in separate reactions with primers to 36B4.

[7] = system: 3T3-PPARγ2 cells; assay: SeaHorse mitochondrial respiration and gene activity in 3T3-PPARγ2 cells; format: cell-based, mouse; details: 3T3-L1 cells overexpressing PPARγ2
Text: as §1, §2

[8] = system: Adrb3 promoter; assay: Adrb3 promoter luciferase reporter in Cos7 cells with or without PPARα; format: cell-based, murine
Experimental: To determine if biliverdin/bilirubin is increasing Adrb3 in a PPARa-dependent manner, the proximal (−2816 to +118) and enhancer (−4770 to −4430) regions of the murine promoter in the pGL4.10 construct were cloned. The constructs were transfected with or without PPARα in receptorless Cos7 cells. The proximal promoter had no response with or without PPARα expressed in Cos7 cells (FIGS. 3D-3E). […] Therefore, various areas within the Adrb3 promoter were analyzed using the information from the luciferase promoter data and with analysis of several suspected PPREs in the promoter region.
An expression vector for Flag-Tagged PPARα was constructed as previously described. The cells were transfected with RXR-SG5 and either WT-Flag PPARα or with a Flag-Tagged PPARα plasmid with one of the following mutations: M330G, A333G, or T283G, in order to determine if binding of bilirubin at previously predicted positions would alter activity. Cells were also transfected with RXR-SG5 to enhance PPAR activity and the PPAR minimal reporter promoter plasmid (3Tk-Luc), whose activity was measured by luciferase, and pRL-CMV Renilla reporter for normalization to transfection efficiency. Transient transfection was achieved using GeneFect (Alkali Scientific, Inc.) during a 24-hour span.

Question: What does the source list for `C=CC1=C(C)/C(=C/C2=NC(=C\c3[nH]c(/C=C4\NC(=O)C(C)=C4C=C)c(C)c3CCC(=O)O)/C(CCC(=O)O)=C2C)NC1=O` [biliverdin]?
Answer: ATP production [1]: significantly higher; basal respiration [1]: significantly higher; maximum respiration [1]: significantly higher; proton leak [1]: significantly higher; lipid accumulation ([2]; 1 μM): did not reduce; lipid accumulation ([2]; 10 μM): significantly reduced; lipid accumulation ([2]; 50 μM): significantly reduced; lipid accumulation ([2]; 50 μM, listed as Biliverdin): significantly reduced; also recorded: substantially decreased; mitochondrial function ([3]; BAT cells): increasing; proton leak ([3]; BAT cells): stimulated; ATP production ([3]; WT BAT cells, 24 hours): increased; also recorded: stimulated; basal respiration (OCR) ([3]; WT BAT cells, 24 hours): increased; maximum respiration (OCR) ([3]; WT BAT cells, 24 hours): increased; also recorded: significantly higher; lipid accumulation [4]: no impact; ATP production [5]: significantly elevated; mitochondrial OCR for maximum respiration [5]: significantly increased; Ucp1 mRNA ([6]; 1 μM): significantly heightened; Cpt1 mRNA expression ([6]; 50 μM): significantly increased; Ucp1 mRNA expression ([6]; 50 μM): significantly increased; gene related activity [7]: did not have significant increase; mitochondrial respiration [7]: no significant changes; luciferase activity, enhancer region with mutated PPREs ([8]; mutations in each PPRE separately): no induction; luciferase activity, enhancer (−4770 to −4430) region ([8]; with PPARα overexpression): significantly higher; luciferase activity, proximal (−2816 to +118) promoter ([8]; with or without PPARα expressed in Cos7 cells): no response
